Assays:
Alternaria solani = test: Spore germination test; type: cell-based; conditions: AS, 48 hours
Outline: (§1)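 Compound in acetone was mixed into water agar at final 40, 10, 2.5 and 1 ppm and poured into quadrant dishes. Quadrants received spore suspension, while Erysiphe polygoni and Uromyces phaseoli spores were brushed on from infected leaves. After 48 h at 24 °C, the percentage of germinated spores was converted to a germination rating.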

Botrytis cinerea = test: Spore germination test; type: cell-based; conditions: BC, 48 hours
Outline: as §1

Uromyces phaseoli [1] = test: Spore germination test; type: cell-based; conditions: UP, 48 hours
Outline: as §1

Uromyces phaseoli [2] = test: whole plant or invertebrate; conditions: foliar, read-out: Percent Disease Control, foliar, bean rust

SMILES | Spore Germination Rating (Alternaria solani; 1.0 ppm) | Spore Germination Rating (Alternaria solani; 2.5 ppm) | Spore Germination Rating (Alternaria solani; 10 ppm) | Spore Germination Rating (Alternaria solani; 40 ppm) | Spore Germination Rating (Botrytis cinerea; 1.0 ppm) | Spore Germination Rating (Botrytis cinerea; 2.5 ppm) | Spore Germination Rating (Botrytis cinerea; 10 ppm) | Spore Germination Rating (Botrytis cinerea; 40 ppm) | Spore Germination Rating (Uromyces phaseoli [1]; 1.0 ppm) | Spore Germination Rating (Uromyces phaseoli [1]; 2.5 ppm) | Spore Germination Rating (Uromyces phaseoli [1]; 10 ppm) | Spore Germination Rating (Uromyces phaseoli [1]; 40 ppm) | pest or weed control at 150 ppm (Uromyces phaseoli [2])
Cc1cc(Oc2nsnc(Cl)c2=O)ccc1Cl [Compound 54, 3-chloro-5-(4-chloro-3-methylphenoxy)-4H--1,2,6-thiadiazin-4-one] | 4 (80-100) | 4 (80-100) | 4 (80-100) | 4 (80-100) | 4 (80-100) | 4 (80-100) | 2 (40-60) | 1 (10-40) | 0 (0-10) | 0 (0-10) | 0 (0-10) | 0 (0-10) | 100%
C[S+]([O-])c1ccc(Oc2nsnc(Cl)c2=O)cc1 (stereo not shown) [Compound 40, 3-chloro-5-[(4-methylsulfinyl)phenoxy]-4H-1,2,6,-thiadiazin-4-one] | 4 (80-100) | 2 (40-60) | 1 (10-40) | 0 (0-10) | 4 (80-100) | 4 (80-100) | 4 (80-100) | 3 (60-80) | 3 (60-80) | 2 (40-60) | 1 (10-40) | 1 (10-40) | 98%
O=c1c(Cl)nsnc1Oc1ccc(Cl)cc1Cl [Compound 17, 3-chloro-5-(2,4-dichlorophenoxy)-4H--1,2,6-thiadiazin-4-one] | 2 (40-60) | 1 (10-40) | 0 (0-10) | 0 (0-10) | 4 (80-100) | 0 (0-10) | 0 (0-10) | 0 (0-10) | 0 (0-10) | 0 (0-10) | 0 (0-10) | 0 (0-10) | 100%
O=c1c(Cl)nsnc1Oc1cc(Cl)cc(Cl)c1 [Compound 20, 3-chloro-5-(3,5-dichlorophenoxy)-4H--1,2,6-thiadiazin-4-one] | 2 (40-60) | 0 (0-10) | 0 (0-10) | 0 (0-10) | 4 (80-100) | 0 (0-10) | 0 (0-10) | 0 (0-10) | 0 (0-10) | 0 (0-10) | 0 (0-10) | 0 (0-10) | 100%
